Data published in PubChem BioAssay AID1919014 (Molecular Pharmacology Branch, DTP, NCI, 2023).
Values joined by “and” are separate entries in the source; they are usually repeats but may differ in a detail not shown here. Identical values can stand only once. Values belong to the compound of their own block, whether it stands above or below them.

System: NCI-H1341 complex spheroids, percent test/control
Experiment: Anticancer human tumor NCI-H1341 cell line growth inhibition [AhR];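 also: spheroids exposed to agents for seven days before readout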
Settings: for viability, T/C: stronger effect = lower value
In short: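 Complex tumor spheroids co-cultured with HUVEC and human MSC stroma; AhR antagonists tested in combination with standard-of-care and investigational agents. Top concentration at or near clinical Cmax (else 10 microM), half-log dilutions; growth expressed as percent test/control.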

[1] = curve of first compound, second compound 0.1 µM
[2] = curve of first compound, second compound 0.316 µM
[3] = curve of first compound, second compound 1 µM
[4] = curve of first compound, second compound 3.16 µM
[5] = curve of first compound, second compound 10 µM
[6] = second compound 0.1 µM, first compound 0.0316 µM
[7] = second compound 0.1 µM, first compound 0.1 µM
[8] = second compound 0.1 µM, first compound 0.316 µM
[9] = second compound 0.1 µM, first compound 1 µM
[10] = second compound 0.316 µM, first compound 0.0316 µM
[11] = second compound 0.316 µM, first compound 0.1 µM
[12] = second compound 0.316 µM, first compound 0.316 µM
[13] = second compound 0.316 µM, first compound 1 µM
[14] = second compound 1 µM, first compound 0.0316 µM
[15] = second compound 1 µM, first compound 0.1 µM
[16] = second compound 1 µM, first compound 0.316 µM
[17] = second compound 1 µM, first compound 1 µM
[18] = second compound 3.16 µM, first compound 0.0316 µM
[19] = second compound 3.16 µM, first compound 0.1 µM
[20] = second compound 3.16 µM, first compound 0.316 µM
[21] = second compound 3.16 µM, first compound 1 µM
[22] = second compound 10 µM, first compound 0.0316 µM
[23] = second compound 10 µM, first compound 0.1 µM
[24] = second compound 10 µM, first compound 0.316 µM
[25] = second compound 10 µM, first compound 1 µM
[26] = second compound 0.1 µM, first compound 3.16 µM
[27] = second compound 0.1 µM, first compound 10 µM
[28] = second compound 0.316 µM, first compound 3.16 µM
[29] = second compound 0.316 µM, first compound 10 µM
[30] = second compound 1 µM, first compound 3.16 µM
[31] = second compound 1 µM, first compound 10 µM
[32] = second compound 3.16 µM, first compound 3.16 µM
[33] = second compound 3.16 µM, first compound 10 µM
[34] = second compound 10 µM, first compound 3.16 µM
[35] = second compound 10 µM, first compound 10 µM

Structure (SMILES): Nc1ncn(C2CC(O)C(CO)O2)c(=O)n1 (stereo not drawn) + Cc1cncc(-c2nc(NCCc3c[nH]c4ccccc34)c3ncn(C(C)C)c3n2)c1
IC50 [1]: 0.206 µM
IC50 [2]: 0.264 µM
IC50 [3]: 0.0804 µM
IC50 [4]: 0.481 µM
IC50 [5]: < 0.00316 µM
viability, T/C (second compound 0.1 µM, first compound 0.00316 µM): 83%
viability, T/C (second compound 0.1 µM, first compound 0.01 µM): 89.2%
viability, T/C [6]: 81.4%
viability, T/C [7]: 54.7%
viability, T/C [8]: 48.8%
viability, T/C [9]: 28.1%
viability, T/C (second compound 0.316 µM, first compound 0.00316 µM): 75.5%
viability, T/C (second compound 0.316 µM, first compound 0.01 µM): 86.1%
viability, T/C [10]: 78.2%
viability, T/C [11]: 55.6%
viability, T/C [12]: 52.1%
viability, T/C [13]: 27.9%
viability, T/C (second compound 1 µM, first compound 0.00316 µM): 73%
viability, T/C (second compound 1 µM, first compound 0.01 µM): 82.7%
viability, T/C [14]: 68%
viability, T/C [15]: 45.3%
viability, T/C [16]: 45.9%
viability, T/C [17]: 33.3%
viability, T/C (second compound 3.16 µM, first compound 0.00316 µM): 71.4%
viability, T/C (second compound 3.16 µM, first compound 0.01 µM): 72%
viability, T/C [18]: 69.2%
viability, T/C [19]: 70.2%
viability, T/C [20]: 53.7%
viability, T/C [21]: 38%
viability, T/C (second compound 10 µM, first compound 0.00316 µM): 25.7%
viability, T/C (second compound 10 µM, first compound 0.01 µM): 26.9%
viability, T/C [22]: 21.3%
viability, T/C [23]: 19.5%
viability, T/C [24]: 20.1%
viability, T/C [25]: 18.9%

Structure (SMILES): CC1(C)CCC(CN2CCN(c3ccc(C(=O)NS(=O)(=O)c4ccc(NCC5CCOCC5)c([N+](=O)[O-])c4)c(Oc4cnc5[nH]ccc5c4)c3)CC2)=C(c2ccc(Cl)cc2)C1 + Cc1cncc(-c2nc(NCCc3c[nH]c4ccccc34)c3ncn(C(C)C)c3n2)c1
IC50 [1]: > 10 µM
IC50 [2]: > 10 µM
IC50 [3]: > 10 µM
IC50 [4]: > 10 µM
IC50 [5]: < 0.0316 µM
viability, T/C [6]: 94.9%
viability, T/C [7]: 77.2%
viability, T/C [8]: 81.5%
viability, T/C [9]: 77%
viability, T/C [26]: 64.9%
viability, T/C [27]: 68.3%
viability, T/C [10]: 86.6%
viability, T/C [11]: 77.9%
viability, T/C [12]: 71.3%
viability, T/C [13]: 73.3%
viability, T/C [28]: 66.1%
viability, T/C [29]: 78.1%
viability, T/C [14]: 79.4%
viability, T/C [15]: 80.9%
viability, T/C [16]: 81.6%
viability, T/C [17]: 71.8%
viability, T/C [30]: 63.9%
viability, T/C [31]: 60.3%
viability, T/C [18]: 70.6%
viability, T/C [19]: 66.7%
viability, T/C [20]: 66.1%
viability, T/C [21]: 53.9%
viability, T/C [32]: 64.1%
viability, T/C [33]: 70.5%
viability, T/C [22]: 49.9%
viability, T/C [23]: 43.3%
viability, T/C [24]: 45.2%
viability, T/C [25]: 39.8%
viability, T/C [34]: 42%
viability, T/C [35]: 41.9%

Structure (SMILES): CC1COCCN1c1cc(C2(S(C)(=N)=O)CC2)nc(-c2ccnc3[nH]ccc23)n1 (stereo not drawn) + Cc1ccccc1N=Nc1ccc(NC(=O)c2ccnn2C)c(C)c1
IC50 [1]: 1.6 µM
IC50 [2]: 3.53 µM
IC50 [3]: 3.15 µM
IC50 [4]: 2.11 µM
IC50 [5]: 0.721 µM
viability, T/C [6]: 92.7%
viability, T/C [7]: 92.3%
viability, T/C [8]: 94.4%
viability, T/C [9]: 57.6%
viability, T/C [26]: 45.2%
viability, T/C [27]: 30.3%
viability, T/C [10]: 77.1%
viability, T/C [11]: 108%
viability, T/C [12]: 89%
viability, T/C [13]: 81.2%
viability, T/C [28]: 52.2%
viability, T/C [29]: 31.1%
viability, T/C [14]: 88.2%
viability, T/C [15]: 114%
viability, T/C [16]: 83.2%
viability, T/C [17]: 84.3%
viability, T/C [30]: 48.6%
viability, T/C [31]: 29.4%
viability, T/C [18]: 77.9%
viability, T/C [19]: 90.2%
viability, T/C [20]: 69.2%
viability, T/C [21]: 63.4%
viability, T/C [32]: 43.6%
viability, T/C [33]: 26%
viability, T/C [22]: 55.9%
viability, T/C [23]: 57.5%
viability, T/C [24]: 55.5%
viability, T/C [25]: 47.6%
viability, T/C [34]: 34.5%
viability, T/C [35]: 25.4%

Continued, in another order:

IC50 (curve of compound): 0.231 µM and 0.466 µM and 0.261 µM
Structure (SMILES): Nc1ncn(C2CC(O)C(CO)O2)c(=O)n1 (stereo not drawn)
viability, T/C (compound 0.00316 µM): 107% and 86.3% and 88.1%
viability, T/C (compound 0.01 µM): 95.4% and 112% and 100%
viability, T/C (compound 0.0316 µM): 102% and 89.2% and 69.8%
viability, T/C (compound 0.1 µM): 64.2% and 72.3% and 74.5%
viability, T/C (compound 0.316 µM): 50.6% and 52.8% and 43.7%
viability, T/C (compound 1 µM): 37% and 45.7% and 25.6%

IC50 (curve of compound): > 10 µM
Structure (SMILES): CC(C)c1c(-c2ccccc2)nc2c(C#N)c[nH]n2c1=O
viability, T/C (compound 0.0316 µM): 105% (2×) and 130%
viability, T/C (compound 0.1 µM): 93.4% and 104% and 101%
viability, T/C (compound 0.316 µM): 90% and 98.5% and 101%
viability, T/C (compound 1 µM): 88.2% and 103% and 97.3%
viability, T/C (compound 3.16 µM): 100% and 82.5% and 90.3%
viability, T/C (compound 10 µM): 78% and 92% and 91.9%

IC50 [1]: 0.165 µM
IC50 [2]: 0.281 µM
IC50 [3]: 0.263 µM
IC50 [4]: 0.236 µM
IC50 [5]: 0.0174 µM
Structure (SMILES): Nc1ncn(C2CC(O)C(CO)S2)c(=O)n1 (stereo not drawn) + Cc1ccccc1N=Nc1ccc(NC(=O)c2ccnn2C)c(C)c1
viability, T/C (second compound 0.1 µM, first compound 0.000949 µM): 71.8%
viability, T/C (second compound 0.1 µM, first compound 0.003 µM): 84.3%
viability, T/C (second compound 0.1 µM, first compound 0.00949 µM): 83.3%
viability, T/C (second compound 0.1 µM, first compound 0.03 µM): 65%
viability, T/C (second compound 0.1 µM, first compound 0.0949 µM): 61.3%
viability, T/C (second compound 0.1 µM, first compound 0.3 µM): 40%
viability, T/C (second compound 0.316 µM, first compound 0.000949 µM): 78.8%
viability, T/C (second compound 0.316 µM, first compound 0.003 µM): 95%
viability, T/C (second compound 0.316 µM, first compound 0.00949 µM): 93.2%
viability, T/C (second compound 0.316 µM, first compound 0.03 µM): 87.7%
viability, T/C (second compound 0.316 µM, first compound 0.0949 µM): 78%
viability, T/C (second compound 0.316 µM, first compound 0.3 µM): 48.1%
viability, T/C (second compound 1 µM, first compound 0.000949 µM): 78.2%
viability, T/C (second compound 1 µM, first compound 0.003 µM): 85.8%
viability, T/C (second compound 1 µM, first compound 0.00949 µM): 84.9%
viability, T/C (second compound 1 µM, first compound 0.03 µM): 81.3%
viability, T/C (second compound 1 µM, first compound 0.0949 µM): 74.1%
viability, T/C (second compound 1 µM, first compound 0.3 µM): 46.8%
viability, T/C (second compound 3.16 µM, first compound 0.000949 µM): 88%
viability, T/C (second compound 3.16 µM, first compound 0.003 µM): 62.4%
viability, T/C (second compound 3.16 µM, first compound 0.00949 µM): 66%
viability, T/C (second compound 3.16 µM, first compound 0.03 µM): 69.6%
viability, T/C (second compound 3.16 µM, first compound 0.0949 µM): 62.6%
viability, T/C (second compound 3.16 µM, first compound 0.3 µM): 43.8%
viability, T/C (second compound 10 µM, first compound 0.000949 µM): 51.4%
viability, T/C (second compound 10 µM, first compound 0.003 µM): 54.6%
viability, T/C (second compound 10 µM, first compound 0.00949 µM): 53%
viability, T/C (second compound 10 µM, first compound 0.03 µM): 45.8%
viability, T/C (second compound 10 µM, first compound 0.0949 µM): 45.2%
viability, T/C (second compound 10 µM, first compound 0.3 µM): 34.9%

IC50 (compound alone, run of 07/12/2022): > 10 µM
Structure (SMILES): CC(CO)NC(=O)c1cc(-c2ccc(Cl)cc2)nn(-c2cnn(C)c2)c1=O (stereo not drawn)
viability, T/C (compound 10 µM): 78.7% [middle of 19 runs]

IC50 (curve of compound): > 10 µM and 2.07 µM and 2.2 µM
Structure (SMILES): CC1(C)CCC(CN2CCN(c3ccc(C(=O)NS(=O)(=O)c4ccc(NCC5CCOCC5)c([N+](=O)[O-])c4)c(Oc4cnc5[nH]ccc5c4)c3)CC2)=C(c2ccc(Cl)cc2)C1
viability, T/C (compound 0.0316 µM): 113% and 85.5% and 86.1%
viability, T/C (compound 0.1 µM): 97% and 69.1% and 76.1%
viability, T/C (compound 0.316 µM): 95.7% and 108% and 96.4%
viability, T/C (compound 1 µM): 101% and 68% and 72.1%
viability, T/C (compound 3.16 µM): 92.2% and 38.2% and 39.1%
viability, T/C (compound 10 µM): 85.7% and 14% and 10.1%
